Test results taken from ChEMBL document CHEMBL1145705, “Flavonoids as inhibitors or enhancers of the cytotoxicity of tumor necrosis factor-alpha in L-929 tumor cells” (J Nat Prod, 1997).
Active and inactive are the calls of the source. No cut-off for these calls is given here.

What was measured:
L929 [1] = assay: Potentiation of recombinant human TNF-alpha-induced cytotoxicity of mouse L929 cells assessed as survivality preincubated for 15 mins before TNFalpha addition measured after 24 hrs by crystal violet staining; type: functional, cell-based
L929 [2] = assay: Potentiation of recombinant human TNF-alpha-induced cytotoxicity of mouse L929 cells assessed as survivality preincubated for 15 mins before TNFalpha addition measured after 24 hrs by [methyl-3H]thymidine incorporation assay; type: functional, cell-based
L929 [3] = assay: Inhibition of recombinant human TNF-alpha-induced cytotoxicity of mouse L929 cells assessed as survivality preincubated for 15 mins before TNFalpha addition measured after 24 hrs by [methyl-3H]thymidine incorporation assay; type: functional, cell-based
L929 [4] = assay: Inhibition of recombinant human TNF-alpha-induced cytotoxicity of mouse L929 cells assessed as survivality preincubated for 15 mins before TNFalpha addition measured after 24 hrs by crystal violet staining; type: functional, cell-based
L929 [5] = assay: Inhibition of recombinant human TNF-alpha-induced cytotoxicity of mouse L929 cells assessed as survivality treated with drug after 2 hrs of TNFalpha treatment; type: functional, cell-based
L929 [6] = assay: Potentiation of recombinant human TNF-alpha-induced cytotoxicity of mouse L929 cells assessed as survivality treated with drug after 2 hrs of TNFalpha treatment; type: functional, cell-based
L929 [7] = assay: Potentiation of recombinant human TNF-alpha-induced cytotoxicity of mouse L929 cells assessed as survivality at 250 uM preincubated for 15 mins before TNFalpha addition measured after 24 hrs by [methyl-3H]thymidine incorporation assay; type: functional
L929 [8] = assay: Potentiation of recombinant human TNF-alpha-induced cytotoxicity of mouse L929 cells assessed as survivality at 250 uM preincubated for 15 mins before TNFalpha addition measured after 24 hrs by crystal violet staining; type: functional
L929 [9] = assay: Cytotoxicity against mouse L929 cells at 1 uM preincubated for 15 mins before TNFalpha addition measured after 24 hrs by crystal violet staining; type: cell-based; details: l929, 24 h
L929 [10] = assay: Cytotoxicity against mouse L929 cells at 1 uM preincubated for 15 mins before TNFalpha addition measured after 24 hrs by [methyl-3H]thymidine incorporation assay; type: cell-based; details: l929, 24 h

Structure (SMILES) | EC50 (L929 [3]) | EC50 (L929 [4]) | Activity (L929 [4]) | Activity (L929 [5]) | Activity (L929 [6]) | other results
O=c1cc(-c2ccc(O)cc2)oc2cc(O)cc(O)c12 | – | – | – | – | – | Activity (L929 [1]): Active; Activity (L929 [2]): Active
O=c1cc(-c2ccccc2)oc2cc(O)cc(O)c12 | – | – | – | – | – | Activity (L929 [1]): Active; Activity (L929 [2]): Active
O=C1c2c(O)cc(O)cc2O[C@H](c2ccc(O)c(O)c2)[C@H]1O [(+)-TAXIFOLIN] | 240 µM | 200 µM | – | – | – | –
Oc1cc(O)c2c(c1)O[C@H](c1ccc(O)c(O)c1)[C@H](O)C2 [(-)-EPICATECHIN] | 350 µM | 300 µM | – | – | – | –
O=C1C[C@@H](c2ccc(O)c(O)c2)Oc2cc(O)cc(O)c21 [ERIODICTYOL] | 6 µM | 4 µM | – | – | – | –
O=c1c(O)c(-c2ccccc2)oc2cc(O)cc(O)c12 [GALANGIN] | 50 µM | 40 µM | Dose-dependent effect | Active | Active | –
COc1ccc(-c2oc3cc(O)cc(O)c3c(=O)c2O)cc1 [KAEMPFERIDE] | 140 µM | 129 µM | Dose-dependent effect | Active | Active | –
O=c1c(O)c(-c2ccc(O)cc2)oc2cc(O)cc(O)c12 [KAEMPFEROL] | 25 µM | 20 µM | Dose-dependent effect | Active | Active | –
O=c1cc(-c2ccc(O)c(O)c2)oc2cc(O)cc(O)c12 [LUTEOLIN] | > 250 µM | > 250 µM | – | – | – | –
O=c1c(O)c(-c2ccc(O)cc2O)oc2cc(O)cc(O)c12 [MORIN] | 115 µM | 120 µM | Dose-dependent effect | Active | Active | –
O=c1c(O)c(-c2cc(O)c(O)c(O)c2)oc2cc(O)cc(O)c12 [MYRICETIN] | 59 µM | 55 µM | Dose-dependent effect | Active | Active | –
O=C1C[C@@H](c2ccc(O)cc2)Oc2cc(O)cc(O)c21 [NARINGENIN] | – | – | – | – | – | Activity (L929 [1]): Active; Activity (L929 [7]): 31%; Activity (L929 [8]): 25%; Activity (L929 [2]): Active
CC(Cc1ccc(O)c(O)c1)C(C)Cc1ccc(O)c(O)c1 (configuration not stated) [NORDIHYDROGUAIARETIC ACID] | 19 µM | 28 µM | – | – | – | –
O=c1c(O)c(-c2ccc(O)c(O)c2)oc2cc(O)cc(O)c12 [QUERCETIN] | 26 µM | 20 µM | Dose-dependent effect | Active | Active | –
C[C@@H]1O[C@@H](OC[C@H]2O[C@@H](Oc3c(-c4ccc(O)c(O)c4)oc4cc(O)cc(O)c4c3=O)[C@H](O)[C@@H](O)[C@@H]2O)[C@H](O)[C@H](O)[C@H]1O [RUTIN] | > 250 µM | 250 µM | Dose-dependent effect | Active | Active | –
CN[C@@H]1C[C@H]2O[C@@](C)([C@@H]1OC)n1c3ccccc3c3c4c(c5c6ccccc6n2c5c31)C(=O)NC4 [STAUROSPORINE] | – | – | – | – | – | Activity (L929 [1]): Dose-dependent effect; Activity (L929 [9]): Toxic; Activity (L929 [2]): Dose-dependent effect; Activity (L929 [10]): Toxic
